Results from patent US20050287203A1, “Formulation comprising testosteron undecanoate and castor oil” (priority 2002, published 2005).

Experiment: concentration of TU attainable in castor oil solution
Type: physicochemical
Settings: liquid carrier castor oil
Description: The choice of castor oil as the liquid carrier, in conjunction with the choice of testosterone undecanoate as the androgen, makes for a solution which can comprise about 200-250 mg of TU per ml. This amounts to approximately […] of testosterone per ml. This is a novel achievement for any orally administerable solution of testosterone in any form. The invention, in one aspect, therefore includes a pharmaceutical formulation in the form of a capsule for oral administration comprising testosterone undecanoate as the active ingredient dissolved in a pharmaceutically acceptable liquid carrier in a concentration of 200-250 mg/ml.

## CCCCCCCCCCC(=O)O[C@H]1CC[C@H]2[C@@H]3CCC4=CC(=O)CC[C@]4(C)[C@H]3CC[C@]12C [testosterone undecanoate]
  amount of TU the solution in castor oil can comprise: 200-250 mg of TU per ml
